The text below walks through data of patent US20230137092A1, “Composition and Method for the Treatment and Prevention of Cardiac, Pulmonary, Dermal, and Renal Fibrosis” (EMERALD HEALTH PHARMACEUTICALS INC., priority 2020, published 2023).

One assay relates to ERK1+2. Briefly: Ang II-induced ERK1+2 phosphorylation in hICF, immunoblot. The assay is classed as cell-based, human. Particulars: hICF preincubated with compound, Ang II for 30 minutes. How it is done: The effect of compound of Formula (VIII) on Ang II signaling pathways in hICF was investigated. ERK1+2 and NFAT activation are two pathways activated by Ang-II (Wakatsuki et al., 2004, Trends Biochem Sci, 29:609-617). hICF were preincubated with compound of Formula (VIII), treated with Ang II for 30 minutes, washed with PBS and proteins extracted in 50 μL of lysis buffer (50 mM Tris-HCl pH 7.5, 150 mM NaCl, 1% (v/v) NP-40, 10% (v/v) glycerol, 10 mM NaF, 1 mM Na3VO4, aprotinin (10 μg/ml), leupeptine (10 μg/ml), pepstatin (1 μg/ml) and 1 mM PMSF saturated). Separated proteins in 10% SDS/PAGE gels were transferred to PVDF membranes and blocked in TBS solution containing 0.1% Tween 20 and 5% bovine serum albumin (BSA) for 1 hour at room temperature. Immunodetection of specific proteins was carried out by incubation with primary antibodies against p-ERK (1:1000; #4695 Cell Signaling Technology) and ERK (1:1000, M5670, Sigma). Membranes were incubated with horseradish peroxidase-conjugated secondary antibody was added and proteins detected by chemiluminescence system (GE Healthcare Europe GmbH). Compound of Formula (VIII) inhibited Ang II-induced ERK1+2 phosphorylation (FIG. 16B).

The test system of a further assay is NFAT. Kind of assay: Gal4-NFAT / Gal4-Luc reporter assay in hICF. The assay is classed as cell-based, human. Conditions: hICF transfected with Gal4-Luc and Gal4-NFAT, stimulated 6 hours. Here is the method: hICF cells were transiently transfected for 24 hours with the Gal4-Luc reporter plasmid (which includes five Gal4 DNA binding sites fused to the luciferase gene) and the Gal4-NFAT1-415plasmid for 24 hours using Roti-Fect (Carl Roth GmbH & Co. KG, Karlsruhe, Germany). Then cells were stimulated for 6 hours and luciferase activity in the cell lysates was measured. The specific transactivation expressed as a percentage of activation relative to control. Compound of Formula (VIII) inhibited Ang II-induced NFAT activation (FIG. 16B).
On the technique in general: Reporter assays use an easily measured gene product as a stand-in for the process of interest.

Turning to `CCCCc1nc(Cl)c(CO)n1Cc1ccc(-c2ccccc2-c2nn[nH]n2)cc1` [Losartan, reference compound], the “Ang II-induced ERK1+2 phosphorylation” value in the assay on ERK1+2 is reported as “inhibited”. Also, the “Ang II-induced NFAT activation (luciferase)” value with NFAT was “inhibited”.
